Measurements from patent US6984636B2, “Mitochondrially targeted antioxidants” (Medical Research Council, priority 2002, dated 2006).

What was measured:
[1] = test system: superoxide; assay: Standard assay for superoxide dismutase activity (xanthine oxidase/hypoxanthine, acetylated cytochrome c reduction, A550); format: biochemical
Description: To see if Compound 9 is catalytically active as a superoxide dismutase mimetic, a standard assay for superoxide dismutase activity was used (Boveris, A., Methods Enzymol., 105, 429-435 (1984), which is incorporated herein by reference).
The incubation conditions were 50 mM KPi, pH 7.5; 1 mM EGTA; 100 μM DTPA (N,N-bis(2-bis[carboxymethyl]amino)ethyl) glycine) at 30° C. to which was added 0.1 unit/ml xanthine oxidase and acetylated cytochrome c (50 μM). After incubation for 2 min, the background rate was measured for 1 min then hypoxanthine (100 μM) was added to initiate superoxide formation (point X in FIG. 2), which provides a continual flux. The rate of superoxide formation is measured by the rate at which the superoxide reduced cytochrome c(III) to cytochrome c(II), which leads to an increase in light absorption at 550 nm (A550). SOD activity causes the superoxide to be converted to hydrogen peroxide thereby decreasing the rate of reduction of cytochrome c (III). In FIG. 2, the initial rate of reduction of cytochrome c (III) can be seen (line A) and on addition of compound 9 (250 nM) this rate of cytochrome c reduction was decreased due to consumption of the superoxide by compound 9 (line B).
The above experiments were repeated using various concentrations of Compound 9 and the native superoxide dismutase (Cu, Zn SOD) in order to compare their activity.

[2] = test system: rat liver mitochondria; assay: Accumulation of Compound 9 in isolated mitochondria (ion selective electrode); format: in vitro ADME
Description: Liver mitochondria were prepared from female Wistar rats by homogenisation followed by differential centrifugation in medium containing 250 mM sucrose, 10 mM Tris-HCL (pH 7.4) and 1 mM EGTA (Chappell, J. B. and Hansford, R. G., In: Subcellular components: preparation and fractionation (Ed. Birnie G D), pp. 77-91. Butterworths, London, 1972, which is incorporated herein by reference.)
An ion selective electrode for compound 9 was prepared by standard procedures (Kamo, N., et al., Journal of Membrane Biology, 49, 105-121 (1979) and Davey, G. P., et al., Biochemical Journal, 288, 439-443 (1992), which are incorporated herein by reference), and activated by soaking in 100 μM compound 9 for 1-3 days. The electrodes were then inserted into an air-tight chamber of an oxygen electrode enabling simultaneous measurement of oxygen consumption and compound 9, as shown in FIG. 1.
The rat liver mitochondria (2 mg protein/ml) were suspended in KCl medium (120 mM KCl, 10 mM HEPES, pH 7.2, 1 mM EGTA) with additions of rotenone (5 μg/ml) and nigericin (0.6 nM) in a stirred 3 ml system at 30° C. Compound 9 was titrated in 1 μM increments (from 650 to 730s on FIG. 1) and the response of the electrode measured over 0-5 μM of Compound 9. This response was logarithmic with respect to the concentration of Compound 9.
To energise the mitochondria, the respiratory substrate succinate (5 mM) was added (at 800s on FIG. 1). These conditions are known to generate a mitochondrial membrane potential of about 180 mV (Burns, et al., Arch Biochem Biophys, 332,60-68 (1995); Burns and Murphy, Arch Biochem Biophys, 339, 33-39 (1997), which are incorporated herein by reference).

[3] = test system: xanthine oxidase; assay: Control experiments for inhibition of xanthine oxidase; format: biochemical
Sequence of xanthine oxidase (P47989 whole entry, species assumed): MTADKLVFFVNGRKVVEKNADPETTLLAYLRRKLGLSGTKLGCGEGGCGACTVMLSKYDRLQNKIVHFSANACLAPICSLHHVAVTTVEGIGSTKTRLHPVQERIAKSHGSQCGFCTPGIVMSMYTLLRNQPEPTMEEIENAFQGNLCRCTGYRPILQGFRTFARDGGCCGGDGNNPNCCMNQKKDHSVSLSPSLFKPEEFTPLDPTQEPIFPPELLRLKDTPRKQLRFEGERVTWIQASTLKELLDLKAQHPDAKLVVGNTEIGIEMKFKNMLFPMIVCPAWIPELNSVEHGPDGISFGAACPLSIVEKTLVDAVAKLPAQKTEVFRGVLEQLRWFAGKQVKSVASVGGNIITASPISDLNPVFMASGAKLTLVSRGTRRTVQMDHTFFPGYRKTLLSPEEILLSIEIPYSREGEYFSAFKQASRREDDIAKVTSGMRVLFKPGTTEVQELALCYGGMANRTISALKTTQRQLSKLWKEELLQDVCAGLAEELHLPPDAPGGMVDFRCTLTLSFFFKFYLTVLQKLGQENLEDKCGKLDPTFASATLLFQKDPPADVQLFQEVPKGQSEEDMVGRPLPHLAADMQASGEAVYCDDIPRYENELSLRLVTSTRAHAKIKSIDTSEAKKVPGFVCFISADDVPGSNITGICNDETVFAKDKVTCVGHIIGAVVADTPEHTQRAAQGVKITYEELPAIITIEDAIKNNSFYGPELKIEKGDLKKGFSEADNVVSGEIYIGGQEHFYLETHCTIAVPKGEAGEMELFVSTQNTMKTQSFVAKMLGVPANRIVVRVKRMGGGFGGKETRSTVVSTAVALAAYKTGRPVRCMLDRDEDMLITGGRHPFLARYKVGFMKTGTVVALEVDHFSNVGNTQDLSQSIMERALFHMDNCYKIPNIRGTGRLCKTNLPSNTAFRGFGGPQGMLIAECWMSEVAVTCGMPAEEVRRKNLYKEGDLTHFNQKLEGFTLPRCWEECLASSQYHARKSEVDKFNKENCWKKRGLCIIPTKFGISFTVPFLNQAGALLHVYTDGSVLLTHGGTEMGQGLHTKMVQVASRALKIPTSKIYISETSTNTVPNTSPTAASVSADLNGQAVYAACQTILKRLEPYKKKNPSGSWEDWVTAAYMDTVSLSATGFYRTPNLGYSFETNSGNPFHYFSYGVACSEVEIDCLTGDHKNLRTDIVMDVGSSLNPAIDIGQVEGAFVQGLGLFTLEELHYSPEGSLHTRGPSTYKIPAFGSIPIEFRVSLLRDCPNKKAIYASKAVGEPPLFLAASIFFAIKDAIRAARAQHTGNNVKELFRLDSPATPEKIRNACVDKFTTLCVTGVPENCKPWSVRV

[Cl-].[Cl-].[Cl-].[Mn+2].c1ccc([P+](CCCSc2cc3nc(c2)CNC2CCCCC2NCCNC2CCCCC2NC3)(c2ccccc2)c2ccccc2)cc1 [Compound 9, Manganese(II) dichloro((4R, 9R, 14R, 19R)-24-(3-triphenylphosphoniopropane-1-thio)-3, 10, 13, 20, 26-pentaazatetracyclo[20.3.1.0.^4,9.0^14,19]hexacosa-1 (26),-22(23),24-triene) chloride]
rate of cytochrome c reduction ([1]; compound 9 at 250 nM, FIG. 2 line B versus control line A): decreased
SOD activity of 1 nmol compound expressed as activity of the native enzyme CuZnSOD ([1]; per 1 nmol Compound 9, various concentrations, FIG. 3): about 1 unit
time for reversal of accumulation on addition of the uncoupler FCCP ([2]; FCCP 332 nM added to dissipate the membrane potential): < 10 s
concentration of the compound within mitochondria ([2]; energised (succinate 5 mM) rat liver mitochondria 2 mg protein/ml, KCl medium pH 7.2, 30° C., 0-5 μM compound): about 1.25 nmol/mg protein
accumulation by energised mitochondria ([2]; energised rat liver mitochondria, membrane potential about 180 mV): ~500 fold
concentration of compound outside the mitochondria after energising with succinate ([2]; succinate 5 mM added, FIG. 1): falls rapidly
inhibition of the activity of xanthine oxidase [3]: does not inhibit
